Experimental data taken from US20230381146A1, “SUBSTITUTED HETEROARYL COMPOUNDS AND USE THEREOF” (HELIOS HUAMING BIOPHARMA CO., LTD., priority 2020, published 2023).

Each compound was assayed against PAD4 (Homo sapiens, UniProt Q9UM07) (assay: PAD4 Inhibition Assay (citrulline formation from BAEE substrate)). Details: PAD4 75 nM, 60 minute preincubation at 37° C., 90 minutes.
Type: biochemical
Description: PAD4 was diluted to 75 nM in Assay Buffer (50 mM Tris-HCl, 2 mM CaCl2), 2 mM DTT, 1 mM PMSF in H2O) and added to wells with various concentrations of compound or DMSO vehicle in Eppendorf tubes (final volume was 100 μL). Following a 60 minute preincubation at 37° C., the reaction was initiated by the addition of 10 μL substrate (22 mM BAEE in H2O) at 37° C. The reaction was stopped after 90 minutes by the addition of 25 μL HClO4 (5 M), 125 μL Reagent A (10 g/L diacetyl monoxime and 15 g/L NaCl in H2O) and 250 μL Reagent B (10 mg/mL antipyrine and 1.0 mg/mL FeCl3 diluted in detection buffer containing 25% H2SO4, 25% H3PO4 and 50% H2O) in sequence. This assay was quenched in an ice-bath for 5 minutes after boiling for 30 minutes. The citrulline formation was measured in fluorescence (κ=465 nm) on microplate reader and the IC50 was calculated by GraphPad Prism.

Sequence of PAD4 (Q9UM07 whole entry): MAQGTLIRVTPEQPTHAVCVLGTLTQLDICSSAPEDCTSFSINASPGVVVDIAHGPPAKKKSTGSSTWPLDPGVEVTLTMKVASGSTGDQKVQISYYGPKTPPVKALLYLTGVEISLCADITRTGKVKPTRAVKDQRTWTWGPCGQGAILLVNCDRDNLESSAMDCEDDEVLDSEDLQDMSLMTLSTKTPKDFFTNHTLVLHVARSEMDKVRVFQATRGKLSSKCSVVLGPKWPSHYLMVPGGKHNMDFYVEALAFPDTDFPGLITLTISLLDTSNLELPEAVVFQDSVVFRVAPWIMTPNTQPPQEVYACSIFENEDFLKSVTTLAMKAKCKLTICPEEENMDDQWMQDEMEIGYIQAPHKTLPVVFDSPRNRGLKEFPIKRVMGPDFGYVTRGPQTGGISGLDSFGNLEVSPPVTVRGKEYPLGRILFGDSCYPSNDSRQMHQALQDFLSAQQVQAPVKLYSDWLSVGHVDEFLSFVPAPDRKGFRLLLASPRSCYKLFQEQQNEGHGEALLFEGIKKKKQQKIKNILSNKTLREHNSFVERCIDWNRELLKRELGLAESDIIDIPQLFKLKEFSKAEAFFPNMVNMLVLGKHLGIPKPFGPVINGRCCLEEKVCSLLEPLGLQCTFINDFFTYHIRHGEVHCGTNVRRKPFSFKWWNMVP

Compound	IC50 [µM]
COc1ccccc1C(=O)N[C@@H](CCCNC(=N)CF)c1ncc(-c2ccccc2)[nH]1 [EX-37, (S)—N-(4-(2-fluoroacetimidamido)-1-(5-phenyl-1H-imidazol-2-yl)butyl)-2-methoxybenzamide]	> 0.5
COc1cccc(OC)c1C(=O)N[C@@H](CCCNC(=N)CF)c1nc(-c2ccc(Cl)cc2)no1 [EX-40]	> 0.5
COc1cccc(Cl)c1C(=O)N[C@@H](CCCNC(=N)CF)c1ncc(-c2cccc(NC(=O)CCCNC(=O)CCCC[C@@H]3SC[C@@H]4NC(=O)N[C@@H]43)c2)o1 [EX-41, 2-Chloro-N—((S)-4-(2-fluoroacetimidamido)-1-(5-(3-(4-(5-((3aS,4S,6aR)-2-oxohexahydro-1H-thieno[3,4-d]imidazol-4-yl)pentanamido)butanamido)phenyl)oxazol-2-yl)butyl)-6-methoxybenzamide]	0.2 to 0.5
COc1ccc(OCCCNC(=O)CCCC(=O)NCCCOCCOCCOCCCNC(=O)CCCC[C@@H]2SC[C@@H]3NC(=O)N[C@@H]32)cc1C(=O)N[C@@H](CCCNC(=N)CF)c1ncc(-c2cccc(Cl)c2)o1 [EX-42, N^1-(3-(3-(((S)-1-(5-(3-Chlorophenyl)oxazol-2-yl)-4-(2-fluoroacetimidamido)butyl)carbamoyl)-4-methoxyphenoxy)propyl)-N^5-(15-oxo-19-((3aS,4S,6aR)-2-oxohexahydro-1H-thieno[3,4-d]imidazol-4-yl)-4,7,10-trioxa-14-azanonadecyl)glutaramide]	> 0.5

Continued, values first:

IC50 [µM]	Compound
0.2 to 0.5	COc1ccc(-c2ccccc2)cc1C(=O)N[C@@H](CCCNC(=N)CF)c1ncc(-c2ccccc2)o1 [EX-38, (S)—N-(4-(2-fluoroacetimidamido)-1-(5-phenyloxazol-2-yl)butyl)-4-methoxy-[1,1′-biphenyl]-3-carboxamide]
> 0.5	COc1cccc(OC)c1C(=O)N[C@@H](CCCNC(=N)CF)c1nnc(-c2ccc(Cl)cc2)o1 [EX-39, (S)—N-(1-(5-(4-Chlorophenyl)-1,3,4-oxadiazol-2-yl)-4-(2-fluoroacetimidamido)butyl)-2,6-dimethoxybenzamide]
